The species named for data set [1] is Cavia porcellus. As to the kind of experiment: Inhibitory concentration against IKr current was measured in isolated guinea pig myocytes during a 0.5 s voltage clamp step from -50 to -10 mV. It counts as functional.
Data set [2] can be described thus: Percent metabolized in an in vitro human liver microsomal incubation assay after 60 min. It counts as ADME, Microsome. The following applies: liver microsomes, read-out: Metabolism.
The species entered for data set [3] is Cavia porcellus. As to the kind of experiment: Inhibitory concentration against IKs current was measured in isolated guinea pig myocytes during a 1 s voltage clamp step […]. Type of data set: functional.
For data set [4], the system named is Canis familiaris. As to the kind of experiment: QTc interval of compound was measured in chloralose anesthetized dogs(for its Class III activity in vivo) at dose of 0.1 mg/kg (iv); units are msec/square root of sec. Type of data set: functional, Canis lupus familiaris.
For data set [5], the system named is Canis familiaris. As to the kind of experiment: Ventricular relative Refractory period (msec) of compound was measured in chloralose anesthetized dogs (for its Class III activity in vivo) at dose of 0.1 mg/kg (iv). It counts as functional, Canis lupus familiaris, Heart.
Data set [6] deals with Canis familiaris. Put plainly: QTc interval of compound was measured in chloralose anesthetized dogs(for its Class III activity in vivo) at dose of 0.01 mg/kg (iv); units are msec/square root of sec. Type of data set: functional, Canis lupus familiaris.
Data set [7] relates to Canis familiaris. Put plainly: QTc interval of compound was measured in chloralose anesthetized dogs(for its Class III activity in vivo) at dose of 0.001 mg/kg (iv); units are msec/square root of sec. Type of data set: functional, Canis lupus familiaris.
The subject of data set [8] is Canis familiaris. Put plainly: Ventricular relative Refractory period (msec) of compound was measured in chloralose anesthetized dogs (for its Class III activity in vivo) at dose of 0.01 mg/kg (iv). Type of data set: functional, Canis lupus familiaris, Heart.
The test system of data set [9] is Canis familiaris. Put plainly: Ventricular relative Refractory period (msec) of compound was measured in chloralose anesthetized dogs (for its Class III activity in vivo) at dose of 0.001 mg/kg (iv). Type of data set: functional, Canis lupus familiaris, Heart.

Some results are limits rather than exact numbers.

With `CC(C)C1=NC(NC(=O)Cc2ccc(C(F)(F)F)cc2C(F)(F)F)C(=O)N(CC(F)(F)F)c2ccccc21` (configuration not stated), the IC50 (usually the concentration needed to halve the response being measured) in data set [1] was more than 1000 nM; in data set [3] (Cavia porcellus), 6 nM. In addition, the metabolised at 1 h in [2] turned out to be 70%.

For `CCCN1C(=O)C(NC(=O)Cc2ccc(C(F)(F)F)cc2C(F)(F)F)N=C(C2CC2)c2ccccc21` (single isomer, unassigned; (+)), the IC50 in data set [1] was more than 1000 nM; in [3] it was 165 nM.

Consider `CC[C@@H](C)N1C(=O)C(NC(=O)Cc2ccc(C(F)(F)F)cc2C(F)(F)F)N=C(C2CC2)c2ccccc21` (single isomer, unassigned; (+)), for which the figures for the IC50 in data set [1] and in data set [3] were more than 1000 nM and 50 nM, respectively.

On to `CC[C@@H](C)N1C(=O)C(NC(=O)Cc2ccc(C(F)(F)F)cc2C(F)(F)F)N=C(c2ccccc2)c2ccccc21` (single isomer, unassigned; (+)), for which, in data set [3], the IC50 was determined as 3.7 nM.

As to `O=C(Cc1ccc(C(F)(F)F)cc1C(F)(F)F)NC1N=C(C2CC2)c2ccccc2N(CC(F)(F)F)C1=O` (single isomer, unassigned; (+)), the IC50 in data set [1] was more than 1000 nM; in data set [3] (Cavia porcellus), 1.5 nM. Also, the metabolised at 1 h in data set [2] was approximately 15%.

On to `CC[C@H](C)N1C(=O)C(NC(=O)Cc2ccc(C(F)(F)F)cc2C(F)(F)F)N=C(C2CC2)c2ccccc21` (single isomer, unassigned; (+)), for which it took 180 nM to reach half-maximal inhibition in [3] (IC50).

`CCCN1C(=O)C(NC(=O)Cc2ccc(C(F)(F)F)cc2C(F)(F)F)N=C(C2CC2)c2ccccc21` (single isomer, unassigned; (-)) yielded an IC50 in [3] of 1.2 nM.

In data set [3], `CCN1C(=O)C(NC(=O)Cc2ccc(C(F)(F)F)cc2C(F)(F)F)N=C(C2CC2)c2ccccc21` (single isomer, unassigned; (-)) had an IC50 of 4 nM.

Take `CC[C@@H](C)N1C(=O)C(NC(=O)Cc2ccc(C(F)(F)F)cc2C(F)(F)F)N=C(C2CC2)c2ccccc21` (single isomer, unassigned; (-)): the results for the “QTc Interval” value in data set [4], in [6] and in data set [7] were 454 ms s-1, 392 ms s-1 and 384 ms s-1, respectively. For the same compound, the “Ventricular relative refractory period” value was 198 ms in data set [5], 180 ms in data set [8] and 176 ms in data set [9]. Further, half-maximal inhibition in [3] (IC50) was put at 0.08 nM.

For the compound `CN1C(=O)C(NC(=O)Cc2ccc(C(F)(F)F)cc2C(F)(F)F)N=C(C2CC2)c2ccccc21` (single isomer, unassigned; (-)), the figures for the IC50 in [1] and in data set [3] were more than 1000 nM and 280 nM, respectively.

On to `CC[C@H](C)N1C(=O)C(NC(=O)Cc2ccc(C(F)(F)F)cc2C(F)(F)F)N=C(C2CC2)c2ccccc21` (single isomer, unassigned; (-)), for which the IC50 is more than 1000 nM in data set [1] and 0.4 nM in data set [3].

`CN1C(=O)C(NC(=O)Cc2ccc(C(F)(F)F)cc2C(F)(F)F)N=C(C2CC2)c2ccccc21` (stereo in doubt; 4 (+)) displayed an IC50 in [3] of 38 nM. In other words, the double-digit nanomolar range.

As for `CCN1C(=O)C(NC(=O)Cc2ccc(C(F)(F)F)cc2C(F)(F)F)N=C(C2CC2)c2ccccc21` (stereo in doubt; 6 (+)), the IC50 in data set [1] was more than 1000 nM; in data set [3], 200 nM.

As to `CC[C@@H](C)N1C(=O)C(NC(=O)Cc2ccc(C(F)(F)F)cc2C(F)(F)F)N=C(c2ccccc2)c2ccccc21` (stereo in doubt; 15 (-)), the IC50 in data set [1] is more than 1000 nM; in [3], 44 nM.

On to `O=C(Cc1ccc(C(F)(F)F)cc1C(F)(F)F)N[C@@H]1N=C(c2ccccc2)c2ccccc2N(CC(F)(F)F)C1=O` [L-768673], for which the concentration for half-maximal inhibition (IC50) came to 6000 nM in [1] and 6 nM in [3] (Cavia porcellus).
